Results published in ChEMBL document CHEMBL4725266, “Decaturenol A and known oxalicine related meroterpenoids isolated from Penicillium decaturense RO050, and their new biological activities” (Bioorg Med Chem Lett, 2020).
The source made the active and inactive calls. No cut-off for these calls is given here.

How the values were obtained:
[1] = system: BMDM; assay: Inhibition of IL-10-induced CD163 expression in human MDM cells at 20 ug/ml incubated for 24 hrs by ELISA; type: functional, cell-based; conditions: dose 20.0 µg/ml
[2] = Cytotoxicity against human MDM cells assessed as reduction in cell viability at 20 ug/ml incubated for 24 hrs by MTT assay; type: cell-based; conditions: dose 20 µg/ml
[3] = Cytotoxicity against human MDM cells assessed as reduction in cell viability at 20 ug/ml incubated for 48 hrs by MTT assay; type: cell-based; conditions: dose 20 µg/ml
[4] = Cytotoxicity against human MDM cells assessed as reduction in cell viability at 40 ug/ml incubated for 24 hrs by MTT assay; type: cell-based; conditions: dose 40 µg/ml
[5] = system: HT-22; assay: Protection against TM mediated ER stress-induced cell death in mouse HT-22 cells assessed as increase in cell viability at 10 uM incubated for 24 hrs by MTT assay; type: functional, cell-based
[6] = system: HT-22; assay: Cytotoxicity against mouse HT-22 cells assessed as reduction in cell viability at 10 uM incubated for 24 hrs by MTT assay; type: cell-based; conditions: ht-22, 24 h
[7] = system: HT-22; assay: Cytotoxicity against mouse HT-22 cells assessed as reduction in cell viability at 10 uM incubated for 24 hrs in presence of tunicamycin by MTT assay; type: cell-based; conditions: ht-22, 24 h
[8] = system: HT-22; assay: Cytotoxicity against mouse HT-22 cells assessed as reduction in cell viability at incubated for 24 hrs by MTT assay; type: cell-based; conditions: HT-22, 24 h

SMILES | inhibition [1] | Activity [2] | Activity [3] | Activity [4] | Activity [5] | Activity [6] | Activity [7] | IC50 [8]
CC1=CC[C@@H]2[C@@]3(C)CC[C@H](O)C(C)(C)[C@@H]3CC[C@@]2(C)[C@]12Cc1c(cc(-c3cccnc3)oc1=O)O2 | Active | Non-Toxic | Toxic | Toxic |  |  |  | 
CC1=CC[C@@H]2[C@@]3(C)CCC(=O)C(C)(C)[C@@H]3CC[C@@]2(C)[C@]12Cc1c(cc(-c3cccnc3)oc1=O)O2 [DECATURIN D] | Active | Non-Toxic | Toxic | Toxic | Active | Toxic |  | 
CC1=CC[C@@H]2[C@]34CC[C@](O)(OC3)C(C)(C)[C@@H]4CC[C@@]2(C)[C@@]12Oc1cc(-c3cccnc3)oc(=O)c1[C@@H]2O [DECATURIN B] | Active | Non-Toxic | Toxic | Toxic | Active | Toxic |  | 
C/C(=C\CC/C(C)=C/Cc1c(O)cc(-c2cccnc2)oc1=O)CC/C=C(\C)CCC(O)C(C)(C)O (centres undefined) | Active | Non-Toxic | Toxic | Toxic | Active | Non-Toxic |  | 
C=C(C)[C@@H]1CC[C@]2(C)[C@H](CC=C(C)[C@]23Oc2cc(-c4cccnc4)oc(=O)c2[C@@H]3O)[C@@]12CCC(=O)OC2 [OXALICINE A] |  |  |  |  |  |  | Toxic | 5.9 µM
